As usually defined, the EC50 is the concentration that produces a half-maximal response.

Data on 2 molecules can be found in PMC11063903, “Engineering a human P2X2 receptor with altered ligand selectivity in yeast” (The Journal of Biological Chemistry, 2024).

Residue numbers refer to the chain shown, from its start.

The target of one test is T1, P2X2 F301W+F303Y (Homo sapiens, UniProt Q9UBL9, F301W/F303Y).
T1 construct: expressed in transfected cells; host or cells: S. cerevisiae BY4741 background
T1 sequence (Q9UBL9 1-471 F301W/F303Y): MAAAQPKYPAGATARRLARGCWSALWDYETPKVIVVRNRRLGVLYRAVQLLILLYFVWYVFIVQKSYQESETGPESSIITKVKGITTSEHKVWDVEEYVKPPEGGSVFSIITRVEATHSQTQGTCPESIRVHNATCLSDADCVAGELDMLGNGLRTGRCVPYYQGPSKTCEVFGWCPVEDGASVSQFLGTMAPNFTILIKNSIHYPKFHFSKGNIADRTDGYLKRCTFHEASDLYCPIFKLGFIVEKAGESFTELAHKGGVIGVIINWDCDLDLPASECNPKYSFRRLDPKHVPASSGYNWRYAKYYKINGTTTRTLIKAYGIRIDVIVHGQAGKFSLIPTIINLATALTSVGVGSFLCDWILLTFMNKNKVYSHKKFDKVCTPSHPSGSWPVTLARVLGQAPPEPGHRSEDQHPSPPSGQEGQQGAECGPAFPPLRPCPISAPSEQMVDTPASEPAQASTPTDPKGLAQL
The experiment in a line: Fast GCaMP-mScarletI assay in yeast, P2X2 F301W+F303Y. It counts as cell-based. The conditions noted are these: n = 3; for Bottom, best fit value / Hillslope, best fit value / Top, best fit value: four-parameter logistic fit of ΔF/ΔT; for EC50: four-parameter logistic fit, unit inferred, unit M, read-out: EC50, best fit value. How it is done: (§1) Figure 4 Unnatural-ligand gating in LBD libraries.A, WT P2X2 was tested with 1 mM ATP, 500 μM AMP-PNP, and compared to ATP with the broken receptor (K81C K83C) control with 1 mM ATP in the fast GCaMP-mScarletI assay (n = 3). […] B, heat map summarizing AMP-PNP signaling (ΔF/ΔT, fast GCaMP-mScarletI assay) in the site-saturation libraries (n = 2–3). All values are normalized to WT P2X2 with saturating amounts of AMP-PNP (500 μM) and therefore represent low signal (ΔF/ΔT) compared to the ATP ligand. C, F301W, F303Y, and A304W were combinatorially combined and tested against the WT, K81C K83C broken P2X2, and the single mutant clones with both ATP (1 mM, black) and AMP-PNP (500 μM, pink). […] Values here represent signal onset and are not normalized to a positive control (n = 2–5). D–K, dose response of each P2X variant with both ATP (black) and AMP-PNP (pink) in the fast GCaMP-mScarletI assay (n = 3). Statistics were performed via one-way ANOVA with Dunnett’s multiple comparisons with to the “broken” K81C K83C negative control. ∗ represents a p value ≤0.05, ∗∗ is p ≤ 0.01, and ∗∗∗ is p ≤ 0.001.
The combined mutations were synergistic, with F303Y + A304W having a predicted additive effect of ca. Ten-fold, relative to the 73-fold seen.
(§2) GCaMP assays were performed as follows. P2X2 GCaMP strains were designed with a bi-cistronic reporter, in which the GCaMP protein was followed by a 2A peptide and a mScarletI reporter ([53]). The co-translated mScarletI was designed to act as a control for plasmid loss, GCaMP breakage via nonsense mutation, and contamination. […] P2X2-GCaMP strains were cultured and induced as previously described. Samples were induced for 24 h to allow for the accumulation of the mature GCaMP protein. Cells were washed three times in 0.1 M MES/Tris buffer and resuspended with MES/Tris with supplemental calcium. Cells were loaded onto a black, clear bottom microplate and imaged on a FlexStation3 plate reader. Samples were imaged in “flex” mode. Samples were imaged for 48 s at an interval of 1.6 s. Fluorescence was measured with an excitation at 485 nm, and emission 525 nm. At the 21 s mark, 100 μl ligand solution was transferred to the cells. For strains with mScarlet, fluorescence was read with excitation 570 nm/emission 610 nm. Slopes were calculated from the last 6 points of measurement and were normalized to the positive control samples. Any replicate in which the mScarlet value was measured to be over 2 standard deviations less than the mean for that set was discarded from further analysis.
(§3) For multiple comparisons in the site-saturation screening data, One-way ANOVA with Dunnett’s multiple comparisons test was performed where every sample was compared to the “broken” negative control. Significance was plotted where ∗ represents a p value ≤0.05, ∗∗ is p ≤0.01, and ∗∗∗ is p ≤0.001. Dose–response curves were fit with nonlinear regression software using a four-parameter logistic curve. All statistics were calculated and plotted in Graphpad Prism software.

The target in a further test is T2, P2X2 F301W (Homo sapiens, UniProt Q9UBL9, F301W).
T2 construct: expressed in transfected cells; host or cells: S. cerevisiae BY4741 background
T2 sequence (Q9UBL9 1-471 F301W): T1 sequence (Q9UBL9 1-471 F301W/F303Y) with Y303F
As to the kind of experiment: Fast GCaMP-mScarletI assay in yeast, P2X2 F301W. Format: cell-based. The conditions noted are these: for Bottom, best fit value / Hillslope, best fit value / Top, best fit value: four-parameter logistic fit of ΔF/ΔT; for Bottom, best fit value / Hillslope, best fit value / Top, best fit value / EC50: n = 3; for EC50: four-parameter logistic fit, unit inferred, unit M, read-out: EC50, best fit value. The method, then:
as §1
Given that the yeast-based screen seemed to recapitulate important structural and functional features of human ion channel function, we hypothesized that it might be possible to engineer new P2X2 functionalities in yeast, including new ligand specificity. […] We screened our 133-member library in the presence of 500 μM AMP-PNP (Fig. S7). While the AMP-PNP signal was uniformly low, three substitutions (F301W, F303Y, and A304W) increased signaling 2.5 to 2.8 times relative to the negative control receptor (Figs. 4B, and S7, D, F, and G). To gain a more complete view of the properties of these mutants, dose–response curves were generated with ATP and AMP-PNP (Fig. 4, D–G, and Table S2).
as §2, §3

In the case of `Nc1ncnc2c1ncn2[C@@H]1O[C@H](COP(=O)(O)OP(=O)(O)NP(=O)(O)O)[C@@H](O)[C@H]1O` [AMP-PNP], at P2X2 F301W+F303Y, the “Bottom, best fit value” is on record as 0.3038; the “Hillslope, best fit value” worked out at 1.304; the “Top, best fit value” is 12.6; the EC50 turned out to be 260 µM. Moreover, the “activity compared to the wild-type” value on P2X2 F301W (AMP-PNP dose-response, Fig. 4D-G, Table S2) was determined as 5.28 fold. In addition, at P2X2 F301W, the “Bottom, best fit value” is reported as 0.4523; the “Hillslope, best fit value” came to 2.135; the “Top, best fit value” was 5.973; the EC50 stood at 214 µM.
On to `Nc1ncnc2c1ncn2[C@@H]1O[C@H](COP(=O)(O)OP(=O)(O)OP(=O)(O)O)[C@@H](O)[C@H]1O` [ATP], for which, on P2X2 F301W+F303Y, the “Bottom, best fit value” was -0.11; the “Hillslope, best fit value” came out at 0.81; the “Top, best fit value” amounted to 46.60; the EC50 turned out to be 3.01 µM. Moreover, on P2X2 F301W, the “Bottom, best fit value” was -0.0044; the “Hillslope, best fit value” stood at 0.94; the “Top, best fit value” is 37.70; the concentration for a half-maximal effect (EC50) came out at 5.04 µM.
